Assay results from patent US20120184590A1, “FORMULATIONS OF INDOLE-3-CARBINOL DERIVED ANTITUMOR AGENTS WITH INCREASED ORAL BIOAVAILABILITY” (UNIVERSITY OF KANSAS, priority 2009, published 2012).
In brackets after ≈: the same amount, converted by molar mass. Entries after “also recorded” stand apart in the source; their conditions may differ. Marks after values point to notes of the source that are not given here.

Tests used:
[1] = Solubility of SR13668 in various solvents; type: physicochemical; details: for solubility: thermodynamic from solid
Text: The other three systems are similar to the Solutol solutions, but the Solutol is the best candidate having the lowest freezing point (see Table 10) and a high SR13668 solubility (see Table 11). […] Vit E TPGS is water soluble natural-source vitamin E d-alpha tocopheryl polyethyleneglycol succinate, 387 IU/g. Myrj is Polyethylene Glycol (50) Monostearate.

[2] = Clinical observations and clinical pathology in dogs; type: in vivo, beagle dogs; details: for ALT / AST / LDH: day 2 following a single dose
Method: For both species, each animal was part of each experimental group, with a 7-day interval between treatments to allow for washout of the dosing formulation and its effects. Dosing formulations of SR13668 were administered by oral gavage (intragastric) or intravenous (i.v.) injection as a single dose or once daily for seven consecutive days. Oral to doses were administered at a dosing volume of 5 mL/kg of body weight, while intravenous doses were administered at a dosing volume of 0.5 mL/kg of body weight. Dogs were dosed with 93.6 mg/m^2 SR13668 intravenously in DMSO:PEG300 15:85 (v/v) or orally in Solutol® vehicle (two groups, fed and after an overnight fast). Monkeys were dosed with 84.2 mg/m^2 SR13668 intravenously in DMSO:PEG300 15:85 (v/v) or orally (336.7 mg/m^2 SR13668 for the oral high dose group) in PEG400:Labrasol® 1:1 (v/v) or Solutol® vehicles. Vehicle control groups were used to assess the tolerability of the vehicle and for clinical pathology evaluations.
At the end of each dosing period, the animals were examined for detailed clinical signs and symptoms (i.e., alterations of teeth, nose, eyes, perineum, pelage and body orifices; changes in appearance or behavior) and/or presence of any tissue masses. Body weights were recorded prior to treatment and daily during each testing interval. Quantitative (grams/day) food consumption data were recorded for dogs on a daily basis during each testing interval. Qualitative food consumption observations were recorded for monkeys on a daily basis during each testing interval. Blood samples for clinical pathology (clinical chemistry, hematology, and coagulation) parameter evaluation were collected from dogs and monkeys prior to dosing and on Days 2 and 8 post-dose, as well as from monkeys on Days 15 and 30 post-dose.

[3] = 93.6 mg/m^2 (4.68 mg/kg) iv, DMSO:PEG300 15:85 v/v, fed
[4] = 93.6 mg/m^2 (4.68 mg/kg) oral gavage, Solutol, fasted
[5] = 93.6 mg/m^2 (4.68 mg/kg) oral gavage, Solutol, fed

CCOC(=O)c1ccc2[nH]c3c(OC)c4[nH]c5ccc(C(=O)OCC)cc5c4cc3c2c1 [SR13668, 2,10-dicarbethoxy-6-methoxy-5,7-dihydro-indolo-(2,3-b)carbazole]
aqueous solubility [1]: extremely low
solubility ([1]; 65 °C, aqueous with cosolvent or surfactant or cyclodextrin, Solutol, 65-70 ° C., HPLC): 7000 µg/mL (≈ 16300 µM)
solubility ([1]; 65 °C, aqueous with cosolvent or surfactant or cyclodextrin, Vitamin E TPGS, 65-70 ° C., UV): 5500 µg/mL (≈ 12800 µM)
solubility ([1]; 65 °C, organic solvent or mixture, Gelucire 44/14, 65-70 ° C., UV): 4260 µg/mL (≈ 9900 µM)
solubility ([1]; 65 °C, organic solvent or mixture, Gelucire 50/13, 65-70 ° C., UV): 4150 µg/mL (≈ 9640 µM)
solubility ([1]; 65 °C, organic solvent or mixture, Myrj 52, 65-70 ° C., UV): 6700 µg/mL (≈ 15600 µM)
solubility ([1]; 65 °C, organic solvent or mixture, Myrj 53, 65-70 ° C., UV): 6800 µg/mL (≈ 15800 µM)
solubility ([1]; 65 °C, organic solvent or mixture, PEG-400, 65-70 ° C., UV): 9000 µg/mL (≈ 20900 µM)
solubility ([1]; 65 °C, organic solvent or mixture, PEG-400 New, 65-70 ° C., UV): 7600 µg/mL (≈ 17700 µM)
solubility ([1]; 65 °C, organic solvent or mixture, PEG-1000, 65-70 ° C., UV): 8150 µg/mL (≈ 18900 µM)
solubility ([1]; 65 °C, organic solvent or mixture, PEG-2000, 65-70 ° C., UV): 8800 µg/mL (≈ 20400 µM)
solubility ([1]; fassgf or other biorelevant, Simulated Intestinal Fluid, RT, HPLC): 0.0075 µg/mL (≈ 0.0174 µM)
solubility ([1]; oil or lipid, Corn Oil, RT, HPLC): 108 µg/mL (≈ 251 µM)
solubility ([1]; oil or lipid, Safflower Oil, RT, HPLC): 77 µg/mL (≈ 179 µM)
solubility ([1]; oil or lipid, Sesame Oil, RT, HPLC): 47 µg/mL (≈ 109 µM)
solubility ([1]; oil or lipid, Soybean Oil, RT, HPLC): 55 µg/mL (≈ 128 µM)
solubility ([1]; oil or lipid, Sunflower Oil, RT, HPLC): 66 µg/mL (≈ 153 µM)
solubility ([1]; organic solvent or mixture, 1-octanol, RT, HPLC): 123 µg/mL (≈ 286 µM)
solubility ([1]; organic solvent or mixture, Absolute Ethanol, RT, HPLC): 75 µg/mL (≈ 174 µM)
solubility ([1]; organic solvent or mixture, Acetone, RT, HPLC): 950 µg/mL (≈ 2210 µM)
solubility ([1]; organic solvent or mixture, Acetonitrile, RT, HPLC): 84.9 µg/mL (≈ 197 µM)
solubility ([1]; organic solvent or mixture, Chemophore EL, RT, HPLC): 264 µg/mL (≈ 613 µM)
solubility ([1]; organic solvent or mixture, DMSO, RT, UV): 106000 µg/mL (≈ 246000 µM)
solubility ([1]; organic solvent or mixture, Ethanol, RT, UV): 148 µg/mL (≈ 344 µM)
solubility ([1]; organic solvent or mixture, Ethyl Acetate, RT, HPLC): 230 µg/mL (≈ 534 µM)
solubility ([1]; organic solvent or mixture, Glycerin, RT, HPLC): 47 µg/mL (≈ 109 µM)
solubility ([1]; organic solvent or mixture, Labrasol, RT, UV): 380 µg/mL (≈ 883 µM)
solubility ([1]; organic solvent or mixture, Methanol, RT, UV): 86.3 µg/mL (≈ 200 µM)
solubility ([1]; organic solvent or mixture, Methylene Chloride, RT, HPLC): 62 µg/mL (≈ 144 µM)
solubility ([1]; organic solvent or mixture, PEG-400, RT, UV): 880 µg/mL (≈ 2040 µM)
solubility ([1]; organic solvent or mixture, PEG-400 New, RT, UV): 1370 µg/mL (≈ 3180 µM)
solubility ([1]; organic solvent or mixture, Pluronic F-127, 120 ° C., HPLC): 9480 µg/mL (≈ 22000 µM)
solubility ([1]; organic solvent or mixture, Propylene Glycol, RT, HPLC): 84 µg/mL (≈ 195 µM)
solubility ([1]; Simulated Gastric Fluid, RT, HPLC): 0.014 µg/mL (≈ 0.0325 µM)
solubility ([1]; Water, RT, HPLC): 0.01 µg/mL (≈ 0.0232 µM)
adverse treatment-related clinical observations [2]: vomiting in fasted dogs
effects on body weights, body weight gains or food consumption [2]: No significant treatment-related effects on body weights, body weight gains or food consumption
effects on clinical pathology (clinical chemistry, hematology, coagulation) [2]: did not cause untoward hematology, clinical chemistry, or coagulation effects; also recorded: No treatment-related effects on any clinical pathology variables
mortality or morbidity [2]: no mortalities or morbidity
ALT [2, 3]: 41.8 ± 5.4 IU/L
AST [2, 3]: 30.8 ± 5.2 IU/L
LDH [2, 3]: 54.8 ± 23 ^c IU/L
ALT [2, 4]: 44.8 ± 10 IU/L
AST [2, 4]: 30.8 ± 7.2 IU/L
LDH [2, 4]: 56.3 ± 9.4 IU/L
ALT [2, 5]: 39.5 ± 4.7 IU/L
AST [2, 5]: 29.3 ± 3.6 IU/L
LDH [2, 5]: 30.3 ± 6.2 ^c IU/L
